What all share (test): fluorogenic AMC peptide hydrolysis
Common to all, as to type: biochemical

Assay [1] deals with T1, 20S proteasome β5 subunit, chymotrypsin-like (ChT-L) activity.
T1 construct: gene PSMB5; native 20S proteasome purified from lymphoblastoid cells
The conditions noted are these: Suc-LLVY-AMC, 37 °C, 30 min, enzyme pretreated with compound; read-out: IC50 (μm)^aChT-L. An excerpt: fluorogenic AMC peptide hydrolysis on 20S proteasome β5 subunit, chymotrypsin-like (ChT-L) activity

The subject of assay [2] is T2, 20S proteasome β2 subunit, trypsin-like (T-L) activity.
T2 construct: gene PSMB7; native 20S proteasome purified from lymphoblastoid cells
The settings on record: Boc-LRR-AMC, 37 °C, 30 min, enzyme pretreated with compound. From the text: fluorogenic AMC peptide hydrolysis on 20S proteasome β2 subunit, trypsin-like (T-L) activity

The test system of assay [3] is T1, 20S proteasome β5 subunit, chymotrypsin-like (ChT-L) activity. The settings on record: Suc-LLVY-AMC, 37 °C, 30 min, enzyme pretreated with compound.

A word on the IC50: it is the point on the concentration scale where inhibition reaches its midpoint.

Read-outs that look alike come from different tables or passages of the source.

Take `CC(C)C[C@H](NC(=O)c1ccccc1)C(=O)NCCNC1=C(Cl)C(=O)c2ccccc2C1=O` [compound 3, Bz-Leu-NH-(CH2)2-NH-ClNafQ]: the IC50 in assay [1] is greater than 100 µM; in assay [2], 58.4 ± 5.13 µM. In the same order, the values of `O=C(N[C@@H](Cc1ccccc1)C(=O)NCCNC1=C(Cl)C(=O)c2ccccc2C1=O)c1ccccc1` [compound 11, Bz-Phe-NH-(CH2)2-NH-ClNafQ] are 6.22 ± 0.48 µM and 53.2 ± 6.7 µM. Regarding Bz-Asn-NH-cHx-NH-ClNafQ [compound 39], the IC50 in assay [3] was greater than 100 µM. On the same count and under the same terms, the value for Bz-Ser-NH-cHx-NH-ClNafQ [compound 47] was greater than 100 µM; that for “1-NaftCO-Asn-NH-cHx-NH-ClNafQ [compound 40]” was greater than 100 µM. On to `O=C1C(Cl)=C(NCCCCNC(=O)[C@H](CO)NC(=O)c2cccc3ccccc23)C(=O)c2ccccc21` [compound 32, 1-NaftCO-Ser-NH-(CH2)4-NH-ClNafQ], for which the values for the concentration for half-maximal inhibition (IC50) in assay [1] and in assay [2] were greater than 100 µM and 60.8 ± 4.88 µM, respectively. Regarding `O=C(NC(CO)C(=O)NCCCCNC1=C(Cl)C(=O)c2ccccc2C1=O)c1ccc([N+](=O)[O-])cc1` (stereo not drawn) [compound 30, NBz-Ser-NH-(CH2)4-NH-ClNafQ], the IC50 came out at 88.7 ± 8.03 µM in assay [1] and 83.3 ± 7.21 µM in assay [2].

With `NC(=O)C[C@H](NC(=O)c1ccccc1)C(=O)NCCCCNC1=C(Cl)C(=O)c2ccccc2C1=O` [compound 23, Bz-Asn-NH-(CH2)4-NH-ClNafQ], in assay [1], the IC50 came to 24.2 ± 2.05 µM. “NBz-Leu-NH-(CH2)4-NH-ClNafQ [compound 18]”: in assay [1], the IC50 came to 8.4 ± 0.72 µM. With `NC(=O)C[C@H](NC(=O)c1ccccc1)C(=O)NCCNC1=C(Cl)C(=O)c2ccccc2C1=O` [compound 7, Bz-Asn-NH-(CH2)2-NH-ClNafQ], the IC50 was determined as 7.99 ± 0.67 µM in assay [1] and 49.7 ± 3.87 µM in assay [2]. Turning to `O=C(N[C@@H](CO)C(=O)NCCCCNC1=C(Cl)C(=O)c2ccccc2C1=O)c1ccccc1` [compound 31, Bz-Ser-NH-(CH2)4-NH-ClNafQ], in assay [1], the IC50 turned out to be 84.1 ± 6.08 µM. Regarding `O=C1C(Cl)=C(NCCCCNC(=O)[C@H](Cc2ccccc2)NC(=O)c2cccc3ccccc23)C(=O)c2ccccc21` [compound 28, 1-NaftCO-Phe-NH-(CH2)4-NH-ClNafQ], the IC50 in assay [1] stood at 9.3 ± 1.02 µM; in assay [2], 79.7 ± 6.97 µM. Turning to “1-NaftCO-Phe-NH-cHx-NH-ClNafQ [compound 44]”, the IC50 in assay [3] is greater than 100 µM. For the compound `NC(=O)CC(NC(=O)c1ccc([N+](=O)[O-])cc1)C(=O)NCCCCNC1=C(Cl)C(=O)c2ccccc2C1=O` (stereo not drawn) [compound 22, NBz-Asn-NH-(CH2)4-NH-ClNafQ], the IC50 in assay [1] was 28.5 ± 3.05 µM. The same measure, in the same setting: the value for “1-NaftCO-Leu-NH-cHx-NH-ClNafQ [compound 36]” was 59.3 ± 6.42 µM. For `Cc1c(O)cccc1C(=O)N[C@@H](CC(N)=O)C(=O)NCCCCNC1=C(Cl)C(=O)c2ccccc2C1=O` [compound 21, HMB-Asn-NH-(CH2)4-NH-ClNafQ], the IC50 in assay [1] amounted to 65.4 ± 6.5 µM. With NBz-Asn-NH-cHx-NH-ClNafQ [compound 38], the IC50 in assay [3] is greater than 100 µM.

As for `CC(C)C[C@H](NC(=O)c1cccc2ccccc12)C(=O)NCCNC1=C(Cl)C(=O)c2ccccc2C1=O` [compound 4, 1-NaftCO-Leu-NH-(CH2)2-NH-ClNafQ], the values for the IC50 in assay [1] and in assay [2] were 0.82 ± 0.08 µM and 21.1 ± 1.85 µM, respectively. In the case of `CC(C)C[C@H](NC(=O)c1ccc([N+](=O)[O-])cc1)C(=O)NCCNC1=C(Cl)C(=O)c2ccccc2C1=O` [compound 2, NBz-Leu-NH-(CH2)2-NH-ClNafQ], the IC50 in assay [1] was greater than 100 µM; in assay [2], 65.3 ± 5.91 µM. Take `O=C1C(Cl)=C(NCCNC(=O)[C@H](CO)NC(=O)c2cccc3ccccc23)C(=O)c2ccccc21` [compound 16, 1-NaftCO-Ser-NH-(CH2)2-NH-ClNafQ]: the IC50 in assay [2] and in assay [3] was greater than 100 µM throughout. For NBz-Leu-NH-cHx-NH-ClNafQ [compound 34], the IC50 in assay [1] worked out at 42.1 ± 5.02 µM. Turning to `Cc1c(O)cccc1C(=O)N[C@@H](CC(C)C)C(=O)NCCNC1=C(Cl)C(=O)c2ccccc2C1=O` [compound 1, HMB-Leu-NH-(CH2)2-NH-ClNafQ], the IC50 is greater than 100 µM in assay [1] and 77.4 ± 6.51 µM in assay [2]. For the compound `CC(C)C[C@H](NC(=O)c1ccccc1)C(=O)NCCCCNC1=C(Cl)C(=O)c2ccccc2C1=O` [compound 19, Bz-Leu-NH-(CH2)4-NH-ClNafQ], the IC50 in assay [1] worked out at 10.1 ± 0.7 µM.

For `Cc1c(O)cccc1C(=O)N[C@@H](Cc1ccccc1)C(=O)NCCNC1=C(Cl)C(=O)c2ccccc2C1=O` [compound 9, HMB-Phe-NH-(CH2)2-NH-ClNafQ], the IC50 in assay [1] is 0.85 ± 0.07 µM; in assay [2] it was greater than 100 µM.

HMB-Asn-NH-cHx-NH-ClNafQ [compound 37]: the IC50 in assay [3] is greater than 100 µM. Still for that read-out and setting: the value for HMB-Phe-NH-cHx-NH-ClNafQ [compound 41] was greater than 100 µM. As for `Cc1c(O)cccc1C(=O)N[C@@H](CO)C(=O)NCCCCNC1=C(Cl)C(=O)c2ccccc2C1=O` [compound 29, HMB-Ser-NH-(CH2)4-NH-ClNafQ], the IC50 in assay [1] was found to be 45.7 ± 2.59 µM; in assay [2], 80.2 ± 6.91 µM. For the compound `Cc1c(O)cccc1C(=O)N[C@@H](Cc1ccccc1)C(=O)NCCCCNC1=C(Cl)C(=O)c2ccccc2C1=O` [compound 25, HMB-Phe-NH-(CH2)4-NH-ClNafQ], the IC50 in assay [1] is 17.5 ± 1.07 µM. Still for that read-out and setting: the value for `O=C(NC(Cc1ccccc1)C(=O)NCCCCNC1=C(Cl)C(=O)c2ccccc2C1=O)c1ccc([N+](=O)[O-])cc1` (stereo not drawn) [compound 26, NBz-Phe-NH-(CH2)4-NH-ClNafQ] was 9.1 ± 0.6 µM. For the compound `O=C1C(Cl)=C(NCCNC(=O)[C@H](Cc2ccccc2)NC(=O)c2cccc3ccccc23)C(=O)c2ccccc21` [compound 12, 1-NaftCO-Phe-NH-(CH2)2-NH-ClNafQ], the IC50 in assay [1] was determined as 9.14 ± 1.02 µM; in assay [2] it was 49.8 ± 3.97 µM.

Turning to NBz-Phe-NH-cHx-NH-ClNafQ [compound 42], the IC50 in assay [1] was 82.1 ± 6.52 µM. As to “1-NaftCO-Ser-NH-cHx-NH-ClNafQ [compound 48]”, the IC50 in assay [3] is greater than 100 µM.

As to `Cc1c(O)cccc1C(=O)N[C@@H](CC(C)C)C(=O)NCCCCNC1=C(Cl)C(=O)c2ccccc2C1=O` [compound 17, HMB-Leu-NH-(CH2)4-NH-ClNafQ], the IC50 is 11.5 ± 1.02 µM in assay [1] and greater than 100 µM in assay [2]. `O=C(N[C@@H](CO)C(=O)NCCNC1=C(Cl)C(=O)c2ccccc2C1=O)c1ccccc1` [compound 15, Bz-Ser-NH-(CH2)2-NH-ClNafQ]: the IC50 in assay [1] was determined as 24.1 ± 1.98 µM; in assay [2], 53.8 ± 4.88 µM. As for Bz-Leu-NH-cHx-NH-ClNafQ [compound 35], the half-inhibitory concentration (IC50) in assay [1] came out at 23.1 ± 1.7 µM. With HMB-Ser-NH-cHx-NH-ClNafQ [compound 45], in assay [3], the IC50 was greater than 100 µM. Regarding `NC(=O)C[C@H](NC(=O)c1cccc2ccccc12)C(=O)NCCNC1=C(Cl)C(=O)c2ccccc2C1=O` [compound 8, 1-NaftCO-Asn-NH-(CH2)2-NH-ClNafQ], the IC50 in assay [1] is 76.2 ± 6.82 µM; in assay [2] it was 35.2 ± 2.77 µM. For `O=C(NC(CO)C(=O)NCCNC1=C(Cl)C(=O)c2ccccc2C1=O)c1ccc([N+](=O)[O-])cc1` (stereo not drawn) [compound 14, NBz-Ser-NH-(CH2)2-NH-ClNafQ], in that order: 83.5 ± 8.03 µM and 63.4 ± 7.01 µM. For `NC(=O)C[C@H](NC(=O)c1ccc([N+](=O)[O-])cc1)C(=O)NCCNC1=C(Cl)C(=O)c2ccccc2C1=O` [compound 6, NBz-Asn-NH-(CH2)2-NH-ClNafQ], the 50% inhibitory concentration (IC50) in assay [1] came out at 0.92 ± 0.09 µM; in assay [2], 17.2 ± 1.09 µM. As to Bz-Phe-NH-cHx-NH-ClNafQ [compound 43], the IC50 in assay [1] is 73.3 ± 3.9 µM. For the compound `O=C(N[C@@H](Cc1ccccc1)C(=O)NCCNC1=C(Cl)C(=O)c2ccccc2C1=O)c1ccc([N+](=O)[O-])cc1` [compound 10, NBz-Phe-NH-(CH2)2-NH-ClNafQ], the IC50 was found to be 0.77 ± 0.06 µM in assay [1] and 35.4 ± 2.91 µM in assay [2]. On to NBz-Ser-NH-cHx-NH-ClNafQ [compound 46], for which, in assay [3], the IC50 was greater than 100 µM. `CC(C)C[C@H](NC(=O)c1cccc2ccccc12)C(=O)NCCCCNC1=C(Cl)C(=O)c2ccccc2C1=O` [compound 20, 1-NaftCO-Leu-NH-(CH2)4-NH-ClNafQ]: the IC50 in assay [1] was found to be 49.3 ± 5.02 µM. As to `Cc1c(O)cccc1C(=O)N[C@@H](CO)C(=O)NCCNC1=C(Cl)C(=O)c2ccccc2C1=O` [compound 13, HMB-Ser-NH-(CH2)2-NH-ClNafQ], the IC50 in assay [2] and in assay [3] was greater than 100 µM each time. As for HMB-Leu-NH-cHx-NH-ClNafQ [compound 33], the IC50 in assay [3] is greater than 100 µM. `Cc1c(O)cccc1C(=O)N[C@@H](CC(N)=O)C(=O)NCCNC1=C(Cl)C(=O)c2ccccc2C1=O` [compound 5, HMB-Asn-NH-(CH2)2-NH-ClNafQ]: the values for the IC50 in assay [1] and in assay [2] were 8.47 ± 0.75 µM and 68.4 ± 5.14 µM, respectively.

Regarding `NC(=O)C[C@H](NC(=O)c1cccc2ccccc12)C(=O)NCCCCNC1=C(Cl)C(=O)c2ccccc2C1=O` [compound 24, 1-NaftCO-Asn-NH-(CH2)4-NH-ClNafQ], the IC50 in assay [1] turned out to be 78.3 ± 6.95 µM. For the compound `O=C(N[C@@H](Cc1ccccc1)C(=O)NCCCCNC1=C(Cl)C(=O)c2ccccc2C1=O)c1ccccc1` [compound 27, Bz-Phe-NH-(CH2)4-NH-ClNafQ], the half-maximal inhibitory concentration (IC50) in assay [1] is 10.1 ± 0.7 µM.

For the origin of these results see paper PMC6445160, “Naphthoquinone amino acid derivatives, synthesis and biological activity as proteasome inhibitors” (Journal of Enzyme Inhibition and Medicinal Chemistry, 2017).
